Measurements: PMC12197678, “Cvill6 and Cvill7: Potent and Selective Peptide Blockers of Kv1.2 Ion Channel Isolated from Mexican Scorpion Centruroides villegasi” (Toxins, 2025)
Positions of bridges follow the written chain, without caps; N, C: chain ends. Residues, ends and D or L forms follow the SMILES beside them.

Assays:
hKv1.1 = molecular target: T1, hKv1.1 (Homo sapiens, UniProt Q09470); assay: cell-based; type: cell-based
T1 construct: host or cells: CHO cells, transient transfection (Lipofectamine 2000)
T1 sequence (Q09470 whole entry): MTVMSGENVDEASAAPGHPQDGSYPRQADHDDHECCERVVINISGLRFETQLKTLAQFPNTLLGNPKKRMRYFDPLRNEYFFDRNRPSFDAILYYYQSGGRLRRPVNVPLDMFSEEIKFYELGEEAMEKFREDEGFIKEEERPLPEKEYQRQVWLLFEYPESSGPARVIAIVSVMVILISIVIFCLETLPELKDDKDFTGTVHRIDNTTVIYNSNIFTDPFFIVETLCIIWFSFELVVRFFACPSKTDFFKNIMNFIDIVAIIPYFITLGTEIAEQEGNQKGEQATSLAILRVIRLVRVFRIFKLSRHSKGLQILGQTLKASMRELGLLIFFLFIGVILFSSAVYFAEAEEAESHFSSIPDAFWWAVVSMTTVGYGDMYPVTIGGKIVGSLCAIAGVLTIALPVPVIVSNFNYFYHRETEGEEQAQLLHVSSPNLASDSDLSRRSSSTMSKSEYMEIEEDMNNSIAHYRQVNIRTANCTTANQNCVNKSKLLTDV
Description: (§1) For current recordings, Kv1.1, Kv1.2, and Kv1.5 were transiently expressed in CHO cells while for Kv11.1 a stable HEK293 cell line was used. To record Kv1.3 currents human peripheral T lymphocytes were activated with Phytohemagglutinin A (PHA) to boost Kv1.3 expression and Ca^2+-free intracellular solution to prevent the KCa3.1 channel opening. […] Appropriate voltage protocols were applied to record the K^+ currents from voltage-clamped cells in whole-cell configurations. Toxins were freshly dissolved in the bath solution supplemented with 0.1 mg/mL BSA and applied to the patched cells via a gravity-fed micro-perfusion system with an approximate flow rate of 200 µL/min.
(§2) Chinese hamster ovary (CHO) cells (generously provided by Yosef Yarden, Weizmann Institute of Science, Rehovot, Israel) or human embryonic kidney (HEK293) cells were cultured and maintained in Dulbecco’s modified Eagle medium (DMEM, Thermo Fisher Scientific, Waltham, MA, USA) supplemented with 2 mM L-glutamine, 10% fetal bovine serum (FBS), 100 µg/mL streptomycin, and 100 U/mL penicillin-g (Sigma-Aldrich, Budapest, Hungary) following standard culturing conditions [52]. For transient expression of ion channels, CHO cells were transfected using the Lipofectamine 2000 kit (Invitrogen, Waltham, MA, USA) following the manufacturer’s instructions with plasmids encoding specific ion channels, including hKv1.1 (KCNA1 gene), hKv1.2 (KCNA2 gene), and hKv1.5 (KCNA5 gene) in a pCMV6-AC-GFP vector (OriGene Technologies), hKCa2.2 (KCNN2 gene) in a pCDN3 plasmid (for this transfection a GFP containing plasmid was co-transfected, courtesy of Bernard Attali, Tel Aviv University, Tel Aviv, Israel), and hKCa3.1 (KCNN4 gene) in a pEGFP-C1 vector (a kind gift by H. Wulff, University of California, Davis, CA, USA). […] Electrophysiological recordings were typically conducted 24 to 48 h after transfection.
(§3) Whole-cell currents were recorded using the patch-clamp technique in voltage-clamp mode, following standard protocols [73]. […] Micropipettes were made from GC150F-7.5 borosilicate capillaries (Harvard Apparatus Co., Holliston, MA, USA) using a Sutter P2000 laser puller with tip resistance generally ranging from 3–6 MΩ in the bath solution. Only recordings with a leak current at the holding potential (Vh) of <10% of the peak current at the test potential were included in the data analysis. All recordings were performed at room temperature (20–25 °C). Control and test solutions were perfused to the cells via a gravity-driven micro-perfusion system and AutoMate Perfusion Pencil Multi-Barrel Manifold Tip (AutoMate Scientific, Berkeley, CA, USA), with an approximate flow rate of 200 µL/min, and the excess amount of bath solution was continuously removed from the recording chamber using vacuum suction.
(§4) The duration of depolarization pulses was 15 ms for Kv1.3 and 50 ms for Kv1.1 and Kv1.5. However, for Kv1.2, 15–500 ms-long pulses were used to achieve the saturated peak current due to the variable activation kinetics of this channel [74].

mKCa1.1 (BK or MaxiK) = type: cell-based, mice; details: 100 nM; ~3 min
Description: Therefore, we investigated the activity of Cvill6 and Cvill7 toxins on three different types of Ca^2+-activated K^+ channels: (1) hKCa2.2 (SK2), the small-conductance Ca^2+-activated channel; (2) hKCa3.1 (IKCa1, SK4), the intermediate-conductance Ca^2+-activated channels, mainly expressed in T lymphocytes; and (3) mKCa1.1 (BK or MaxiK), the large-conductance voltage- and Ca^2+- activated channel of mice. Appropriate depolarization protocols were applied to record the K^+ current through respective KCa channels as shown in the inset of each panel in Figure 6A–C. […] The normalized peak currents (see Section 2.4 or Section 5 for details) for individual cells (n = 5) were averaged at each time point and plotted as a function of time.
(§5) HEK 293 cells stably expressing mKCa1.1 1 (BKCa, Kcnma1 gene, generously provided by C. Beeton from Baylor College of Medicine, Houston, TX, USA) or hKv11.1 (hERG1, KCNH2 gene, gifted by H. Wulff from University of California, Davis, CA, USA) were utilized in this study.
(§6) Whole-cell currents were recorded using the patch-clamp technique in voltage-clamp mode, following standard protocols [73]. […]

hKv1.5 = type: cell-based, human; details: 100 nM; ~3 min
Description: as §1
Chinese hamster ovary (CHO) cells (generously provided by Yosef Yarden, Weizmann Institute of Science, Rehovot, Israel) or human embryonic kidney (HEK293) cells were cultured and maintained in Dulbecco’s modified Eagle medium (DMEM, Thermo Fisher Scientific, Waltham, MA, USA) supplemented with 2 mM L-glutamine, 10% fetal bovine serum (FBS), 100 µg/mL streptomycin, and 100 U/mL penicillin-g (Sigma-Aldrich, Budapest, Hungary) following standard culturing conditions [52]. For transient expression of ion channels, CHO cells were transfected using the Lipofectamine 2000 kit (Invitrogen, Waltham, MA, USA) following the manufacturer’s instructions with plasmids encoding specific ion channels, including hKv1.1 (KCNA1 gene), hKv1.2 (KCNA2 gene), and hKv1.5 (KCNA5 gene) in a pCMV6-AC-GFP vector (OriGene Technologies), hKCa2.2 (KCNN2 gene) in a pCDN3 plasmid (for this transfection a GFP containing plasmid was co-transfected, courtesy of Bernard Attali, Tel Aviv University, Tel Aviv, Israel), and hKCa3.1 (KCNN4 gene) in a pEGFP-C1 vector (a kind gift by H. Wulff, University of California, Davis, CA, USA). […] Electrophysiological recordings were typically conducted 24 to 48 h after transfection. […]
as §6

hKv1.2 = molecular target: T2, hKv1.2 (Homo sapiens, UniProt P16389); assay: Whole-cell patch-clamp, hKv1.2 current in transiently transfected CHO cells; type: cell-based
T2 construct: host or cells: CHO cells, transient transfection (Lipofectamine 2000)
T2 sequence (P16389 whole entry): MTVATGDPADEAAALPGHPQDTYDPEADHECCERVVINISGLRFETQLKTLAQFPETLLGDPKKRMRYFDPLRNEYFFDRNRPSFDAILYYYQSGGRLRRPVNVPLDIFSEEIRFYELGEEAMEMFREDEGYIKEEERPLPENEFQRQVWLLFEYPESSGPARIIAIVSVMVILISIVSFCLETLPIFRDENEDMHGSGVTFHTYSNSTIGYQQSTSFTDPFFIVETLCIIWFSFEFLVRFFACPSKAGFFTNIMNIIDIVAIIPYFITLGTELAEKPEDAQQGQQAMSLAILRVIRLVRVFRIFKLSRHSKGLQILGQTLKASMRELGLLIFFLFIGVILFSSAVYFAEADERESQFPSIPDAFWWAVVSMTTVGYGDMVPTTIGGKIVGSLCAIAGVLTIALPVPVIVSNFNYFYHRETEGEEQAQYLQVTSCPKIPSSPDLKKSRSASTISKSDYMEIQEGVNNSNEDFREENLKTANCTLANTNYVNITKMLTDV
Description: as §1, §2, §3, §4

hKv11.1 (hERG1) = assay: Whole-cell patch-clamp, hKv11.1 current in stable HEK293 cells; type: cell-based, human; details: 100 nM; ~3 min
Description: Appropriate voltage protocols were applied to record the K^+ currents from voltage-clamped cells in whole-cell configurations. Toxins were freshly dissolved in the bath solution supplemented with 0.1 mg/mL BSA and applied to the patched cells via a gravity-fed micro-perfusion system with an approximate flow rate of 200 µL/min.
as §5
Whole-cell currents were recorded using the patch-clamp technique in voltage-clamp mode, following standard protocols [73]. […] Micropipettes were made from GC150F-7.5 borosilicate capillaries (Harvard Apparatus Co., Holliston, MA, USA) using a Sutter P2000 laser puller with tip resistance generally ranging from 3–6 MΩ in the bath solution. Only recordings with a leak current at the holding potential (Vh) of <10% of the peak current at the test potential were included in the data analysis. All recordings were performed at room temperature (20–25 °C). […]

hKCa3.1 (IKCa1, SK4) = molecular target: T3, hKCa3.1 (IKCa1, SK4) (Homo sapiens, UniProt O15554); assay: Whole-cell patch-clamp, hKCa3.1 current in transfected CHO cells; type: cell-based
T3 construct: expressed in transfected cells; host or cells: CHO cells, transient transfection (Lipofectamine 2000); plasmid a gift of H. Wulff
T3 sequence (O15554 whole entry): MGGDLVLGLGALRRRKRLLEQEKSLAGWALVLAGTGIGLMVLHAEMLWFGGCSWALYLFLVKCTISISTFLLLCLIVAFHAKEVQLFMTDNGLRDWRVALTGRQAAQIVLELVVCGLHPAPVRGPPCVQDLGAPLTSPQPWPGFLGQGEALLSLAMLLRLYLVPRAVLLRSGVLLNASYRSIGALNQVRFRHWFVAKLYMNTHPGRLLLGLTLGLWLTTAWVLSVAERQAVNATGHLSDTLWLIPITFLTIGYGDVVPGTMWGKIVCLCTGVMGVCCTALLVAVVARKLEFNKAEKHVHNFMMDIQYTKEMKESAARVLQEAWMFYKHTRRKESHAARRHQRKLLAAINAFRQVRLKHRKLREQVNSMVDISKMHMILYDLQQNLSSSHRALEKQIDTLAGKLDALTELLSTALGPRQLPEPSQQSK
Description: The scorpion toxins from the α-KTx 2 family also modulate the function of Ca^2+-activated potassium channels, in addition to Kv1 channels. Therefore, we investigated the activity of Cvill6 and Cvill7 toxins on three different types of Ca^2+-activated K^+ channels: (1) hKCa2.2 (SK2), the small-conductance Ca^2+-activated channel; (2) hKCa3.1 (IKCa1, SK4), the intermediate-conductance Ca^2+-activated channels, mainly expressed in T lymphocytes; and (3) mKCa1.1 (BK or MaxiK), the large-conductance voltage- and Ca^2+- activated channel of mice. Appropriate depolarization protocols were applied to record the K^+ current through respective KCa channels as shown in the inset of each panel in Figure 6A–C. […] Cvill6 reduced ~40% of the KCa3.1 current (Figure 6C), where the RCF value was 0.73 ± 0.05 (n = 5) at 100 nM (Figure 6D). On the other hand, Cvill7 inhibited ~25% of the current at the same concentration (Figure 6C), with an RCF value 0.84 ± 0.03 (n = 5) (Figure 6D). The time course of inhibition of KCa3.1 currents at 100 nM of Cvill6 or Cvill7 is shown in Figure 6E and Figure 6F, respectively. The normalized peak currents (see Section 2.4 or Section 5 for details) for individual cells (n = 5) were averaged at each time point and plotted as a function of time. […] The recovery from the block with Cvill6 to the initial peak current occurred in 4–5 consecutive traces (~0.8 min) and in the case of Cvill7 it took only 2–3 consecutive traces (~0.5 min) after perfusing the cell with toxin-lacking solution. […] The quantity of native toxins was insufficient to conduct the full dose–response curves at this high concentration range (see above).
Chinese hamster ovary (CHO) cells (generously provided by Yosef Yarden, Weizmann Institute of Science, Rehovot, Israel) or human embryonic kidney (HEK293) cells were cultured and maintained in Dulbecco’s modified Eagle medium (DMEM, Thermo Fisher Scientific, Waltham, MA, USA) supplemented with 2 mM L-glutamine, 10% fetal bovine serum (FBS), 100 µg/mL streptomycin, and 100 U/mL penicillin-g (Sigma-Aldrich, Budapest, Hungary) following standard culturing conditions. For transient expression of ion channels, CHO cells were transfected using the Lipofectamine 2000 kit (Invitrogen, Waltham, MA, USA) following the manufacturer’s instructions with plasmids encoding specific ion channels, including hKv1.1 (KCNA1 gene), hKv1.2 (KCNA2 gene), and hKv1.5 (KCNA5 gene) in a pCMV6-AC-GFP vector (OriGene Technologies), hKCa2.2 (KCNN2 gene) in a pCDN3 plasmid (for this transfection a GFP containing plasmid was co-transfected, courtesy of Bernard Attali, Tel Aviv University, Tel Aviv, Israel), and hKCa3.1 (KCNN4 gene) in a pEGFP-C1 vector (a kind gift by H. Wulff, University of California, Davis, CA, USA). Cells expressing GFP were identified using a Nikon TE 2000U fluorescence microscope (Nikon, Tokyo, Japan) with bandpass filters set to 455–495 nm for excitation and 515–555 nm for emission. Electrophysiological recordings were typically conducted 24 to 48 h after transfection.
The extracellular solution (bath solution) for both Kv and KCa channels consisted of 145 mM NaCl, 5 mM KCl, 2.5 mM CaCl2, 1 mM MgCl2, 10 mM HEPES, and 5.5 mM glucose, pH 7.35, and osmolarity between 302 and 308 mOsM/L. For positive control solutions containing various concentrations of tetraethylammoniums (TEA^+), Na^+ was substituted with TEA-Cl in equimolar concentration in the bath solution and all other ingredients remained unchanged. To avoid toxin adsorption onto the plastic surfaces of the perfusion system, 0.1 mg/mL of bovine serum albumin (BSA, Sigma-Aldrich, Budapest, Hungary) was also added into all bath solutions prior to the patch-clamp assay. […]

With `CC[C@H](C)[C@H](NC(=O)[C@H](Cc1ccccc1)NC(=O)[C@@H](N)[C@@H](C)O)C(=O)N[C@@H](CC(N)=O)C(=O)N[C@H](C(=O)N[C@@H](CCCCN)C(=O)N[C@H]1CSSC[C@@H]2NC(=O)[C@H](CCCCN)NC(=O)CNC(=O)CNC(=O)[C@H](C)NC(=O)[C@H](Cc3c[nH]cn3)NC(=O)[C@@H]3CCCN3C(=O)CNC(=O)[C@H](Cc3ccc(O)cc3)NC(=O)[C@H](CC(C)C)NC(=O)[C@H](CC(=O)O)NC(=O)[C@H](CCCCN)NC(=O)[C@@H]3CSSC[C@@H](C(=O)N[C@@H](Cc4ccc(O)cc4)C(=O)N[C@@H](CC(N)=O)C(=O)N[C@@H](CC(N)=O)C(N)=O)NC(=O)[C@H](CCCCN)NC(=O)[C@H](CSSC[C@H](NC(=O)[C@H](CCC(N)=O)NC(=O)[C@H](CCCCN)NC(=O)[C@@H]4CCCN4C(=O)[C@H](CO)NC(=O)[C@H]([C@@H](C)O)NC1=O)C(=O)N[C@@H](CC(C)C)C(=O)N[C@@H](CCCCN)C(=O)N1CCC[C@H]1C(=O)N3)NC(=O)[C@H](CCCCN)NC(=O)CNC(=O)[C@H](CC(N)=O)NC(=O)[C@H](CCSC)NC2=O)C(C)C` [Cvill7] (H-TFINVKCTSPKQCLKPCKDLYGPHAGGKCMNGKCKCYNN-NH2; disulfide 7-29, 13-34, 17-36; N-terminus and C-terminus assumed) the “reduction of hKv1.1 peak current” value (hKv1.1; 100 nM, representative record, equilibrium block) was ~ 32%, the potency estimated from few doses (hKv1.1; CHO, read-out: estimated IC50) was ~192 nM and the inhibition at 0.1 µM (hKv1.1; CHO, read-out: inhibition of Kv1.1 current) was ~34%. For the same molecule, the “effect on KCa1.1 current” value (mKCa1.1 (BK or MaxiK)) was “Neither Cvill6 nor Cvill7 showed any effect”, the “effect on hKv1.5 current” value (hKv1.5) was “did not show any effect” and the IC50 (hKv1.2) was 0.016 ± 0.00156 nM. For the same molecule, the “time to apparent saturation of Kv1.2 block” value (hKv1.2; 100 pM) was 7 to 8 min, the “loss of Kv1.2 current at saturation” value (hKv1.2; 100 pM, n = 4) was 96 ± 1.4% and the inhibition at 0.001 µM (hKv1.2; CHO, 1 nM, representative record, read-out: inhibition of hKv1.2 current) was > 97%. For the same molecule, the koff (hKv1.2; CHO, Kv1.2, calculated from τoff, 100 pM Cvill7 (n = 4) or 100 nM Cvill6 (n = 5)) was 0.00017 s⁻¹, the kon (hKv1.2; CHO, Kv1.2, calculated from τon and τoff, 100 pM Cvill7 (n = 4) or 100 nM Cvill6 (n = 5)) was 1e+08 ± 1.5e+07 M⁻¹ s⁻¹ and the “selectivity for Kv1.2 over Kv1.3” value (hKv1.2; IC50 ratio) was ~ 450 fold. The “selectivity for Kv1.2 over KCa3.1” value (hKv1.2; KCa3.1 IC50 estimated from a single concentration) was > 32,000 fold, the “selectivity for Kv1.2 over Kv1.1” value (hKv1.2; Kv1.1 IC50 estimated from a single concentration) was ~ 12,000 fold and the “τon, representative fit” value (hKv1.2; Kv1.2, 100 pM, representative fit (Figure S5A)) was 75.3 s. The “τon (development of block)” value (hKv1.2; Kv1.2, 100 pM, single-exponential fits cell-by-cell, mean ± SEM, n = 4) was 104 ± 15 s, the “Hill coefficient (H)” value (hKv1.2; Kv1.2, Hill equation fit of RCF values) was 1.03 and the “τoff (wash-out)” value (hKv1.2; Kv1.2, after 100 pM, mean ± SEM, n = 4) was 5978 ± 538 s. The “τoff, representative fit” value (hKv1.2; Kv1.2, after 100 pM, representative fit (Figure S5A)) was 7380 s, the “selectivity over several other ion channels” value (hKv1.2; Kv1.2 vs several other ion channels) was “three orders of magnitude selectivity over several other ion channels” and the mode of block (hKv1.2; inferred from Hill coefficients close to 1 and single-exponential kinetics) was “pore blockers that interact with channels with 1:1 stoichiometry in a bimolecular interaction”. For the same molecule, the “recovery of blocked Kv1.2 current” value (hKv1.2; toxin-free solution for ~15 min after 100 pM) was “just one-fifth of the blocked current recovered”, the “reversibility of Kv1.2 block” value (hKv1.2; wash-out with toxin-free solution) was “virtually irreversible inhibitor of Kv1.2” and the “effect on hKv11.1 (hERG1) current” value (hKv11.1 (hERG1)) was “did not show any effect”. For the same molecule, the “reversibility of KCa3.1 inhibition” value (hKCa3.1 (IKCa1, SK4); 100 nM, then toxin-free solution) was “inhibit the KCa3.1 channel reversibly with quick association and dissociation kinetics”, the “time to steady-state block of KCa3.1” value (hKCa3.1 (IKCa1, SK4); 100 nM, 5–6 consecutive traces, n = 5) was ~ 1 min and the “reduction of KCa3.1 current” value (hKCa3.1 (IKCa1, SK4); 100 nM, representative record) was ~ 25%. For the same molecule, the inhibition at 0.1 µM (hKCa3.1 (IKCa1, SK4); CHO, 100 nM, read-out: inhibition of KCa3.1 current) was ~16%, the potency estimated from few doses (hKCa3.1 (IKCa1, SK4); CHO, KCa3.1, estimated from a single concentration (100 nM), bimolecular 1:1 interaction, read-out: estimated IC50) was ~527 nM and the “remaining current fraction (RCF, I/I0)” value (hKCa3.1 (IKCa1, SK4); KCa3.1, 100 nM, mean ± SEM, n = 5) was 0.84 ± 0.03. For the same molecule, the “time to recovery from KCa3.1 block” value (hKCa3.1 (IKCa1, SK4); toxin-lacking solution after 100 nM, n = 5) was ~ 0.5 min.
